In patent US20060069132A1, “Azolecarboxamide herbicides” (priority 2004, published 2006):

Assays:
[1] = system: johnsongrass; test: Test C pre-/postemergence herbicide test; assay type: in vivo, Sorghum halepense
Method in brief: (§1)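 Seeds were planted and sprayed preemergence with test chemicals in a non-phytotoxic solvent mixture containing surfactant; postemergence treatments went onto plants 2 to 18 cm tall (1- to 4-leaf stage). After 12 to 14 days in a greenhouse, injury was rated visually against untreated controls on a 0–100 scale.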

[2] = system: rice; test: Test B pre-/postemergence herbicide test; assay type: in vivo, Oryza sativa; conditions: preemergence
Method in brief: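 Herbicidal effect was judged by eye on a 0–100 scale after plants stood 13 to 15 days in the greenhouse following pre- or postemergence treatment with surfactant-containing formulations.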

[3] = system: lambsquarters; test: Test C pre-/postemergence herbicide test; assay type: in vivo, Chenopodium album
Method in brief: as §1

[4] = system: woolly cupgrass; test: Test C pre-/postemergence herbicide test; assay type: in vivo, Eriochloa villosa
Method in brief: as §1

[5] = system: yellow nutsedge; test: Test C pre-/postemergence herbicide test; assay type: in vivo, Cyperus esculentus
Method in brief: as §1

[6] = system: barnyardgrass; test: Test C flooded paddy test; assay type: in vivo, Echinochloa crus-galli; conditions: for Plant response rating, Barnyardgrass: 500 g ai/ha, visual rating after 12 to 14 days
Method in brief: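 Postemergence sprays applied to plants 2 to 18 cm tall (1- to 4-leaf stage); paddy species grown to 2-leaf stage under flooding. After 12 to 14 days in greenhouse, visual rating versus untreated controls on 0–100 scale (0 no effect, 100 complete control).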

[7] = system: large crabgrass; test: Test A pre-/postemergence herbicide test; assay type: in vivo, Digitaria sanguinalis
Method in brief: (§2)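 Seeds sown in sandy loam received a preemergence directed soil spray of compound in non-phytotoxic solvent with surfactant; postemergence plants (2–10 cm, one- to two-leaf stage) were sprayed to runoff at the same time. After ~10 days in greenhouse, injury was rated visually versus untreated controls (0 = no effect, 100 = complete control).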

[8] = system: redroot pigweed; test: Test A pre-/postemergence herbicide test; assay type: in vivo, Amaranthus retroflexus
Method in brief: as §2

[9] = system: giant foxtail; test: Test A pre-/postemergence herbicide test; assay type: in vivo, Setaria faberi
Method in brief: as §2

[10] = Postemergence, 250 g ai/ha, scale 0 to 100, 0 no effect, 100 complete control
[11] = postemergence, 125 g ai/ha, scale 0 to 100
[12] = postemergence, 62 g ai/ha, scale 0 to 100
[13] = 125 g ai/ha, 0 to 100 scale, 0 is no effect, 100 is complete control
[14] = 62 g ai/ha, scale 0 to 100 (0 no effect, 100 complete control)
[15] = 250 g ai/ha, scale of 0 to 100, 0 is no effect, 100 is complete control
[16] = scale 0 to 100 (0 no effect, 100 complete control)
[17] = Postemergence, 500 g ai/ha, scale 0 to 100
[18] = Postemergence, 500 g ai/ha, 0 to 100 scale, 0 no effect, 100 complete control
[19] = Postemergence, 2000 g ai/ha, 0 to 100 scale, 0 no effect, 100 complete control
[20] = Preemergence, 500 g ai/ha, visual rating, 0 to 100 scale (0 no effect, 100 complete control)
[21] = Preemergence, 2000 g ai/ha, 0 to 100 scale, 0 no effect, 100 complete control
[22] = 62 g ai/ha, preemergence, scale 0 to 100
[23] = 125 g ai/ha, scale 0 (no effect) to 100 (complete control), visual, 12 to 14 days, preemergence
[24] = 250 g ai/ha, scale 0-100, preemergence
[25] = 500 g ai/ha, scale 0 to 100 (0 no effect, 100 complete control), visual, 12 to 14 days, preemergence
[26] = Preemergence, 500 g ai/ha, scale 0 to 100, 0 no effect, 100 complete control
[27] = Preemergence, 2000 g ai/ha, visual rating, 0 to 100 scale (0 no effect, 100 complete control)

SMILES: CCn1nc(C(C)(C)C)cc1C(=O)Nc1cccc(C(=O)OC)c1 [Compound 81]
- Plant response rating, Johnsongrass [1, 10]: 5
- Plant response rating, Johnsongrass [1, 11]: 0
- Plant response rating, Johnsongrass [1, 12]: 0
- Plant response rating, Rice [2, 13]: 0
- Plant response rating, Lambsquarters [3, 10]: 5
- Plant response rating, Lambsquarters [3, 11]: 5
- Plant response rating, Lambsquarters [3, 12]: 5
- Plant response rating, Cupgrass, Woolly [4, 10]: 5
- Plant response rating, Cupgrass, Woolly [4, 11]: 5
- Plant response rating, Cupgrass, Woolly [4, 12]: 5
- Plant response rating, Nutsedge, Yellow [5, 10]: 0
- Plant response rating, Nutsedge, Yellow [5, 11]: 0
- Plant response rating, Nutsedge, Yellow [5, 12]: 0
- Barnyardgrass plant response rating [6, 14]: 0
- Barnyardgrass plant response rating ([6]; 125 g ai/ha, scale of 0 to 100, 0 is no effect, 100 is complete control): 0
- Barnyardgrass plant response rating [6, 15]: 0
- Plant response rating, Barnyardgrass [6, 16]: 30

SMILES: C#CCOC(=O)c1cccc(NC(=O)c2cc(C(C)(C)C)nn2CC)c1 [Compound 84]
- Johnsongrass plant response rating [1, 17]: 0
- Plant response rating, Johnsongrass [1, 10]: 0
- Plant response rating, Johnsongrass [1, 11]: 0
- Plant response rating, Johnsongrass [1, 12]: 0
- Crabgrass, Large plant response rating [7, 18]: 20
- Plant response rating, Crabgrass, Large [7, 19]: 20
- Crabgrass, Large plant response rating [7, 20]: 0
- Crabgrass, Large plant response rating [7, 21]: 0
- Plant response rating, Rice [2, 13]: 0
- Lambsquarters plant response rating [3, 17]: 50
- Plant response rating, Lambsquarters [3, 10]: 0
- Plant response rating, Lambsquarters [3, 11]: 0
- Plant response rating, Lambsquarters [3, 12]: 0
- Cupgrass, Woolly plant response rating [4, 17]: 0
- Plant response rating, Cupgrass, Woolly [4, 10]: 0
- Plant response rating, Cupgrass, Woolly [4, 11]: 0
- Plant response rating, Cupgrass, Woolly [4, 12]: 0
- Nutsedge, Yellow plant response rating [5, 17]: 0
- Plant response rating, Nutsedge, Yellow [5, 10]: 0
- Plant response rating, Nutsedge, Yellow [5, 11]: 0
- Plant response rating, Nutsedge, Yellow [5, 12]: 0
- Pigweed plant response rating [8, 18]: 50
- Plant response rating, Pigweed [8, 19]: 45
- Pigweed plant response rating [8, 20]: 0
- Pigweed plant response rating [8, 21]: 0
- Foxtail, Giant plant response rating [9, 18]: 15
- Plant response rating, Foxtail, Giant [9, 19]: 10
- Foxtail, Giant plant response rating [9, 20]: 0
- Foxtail, Giant plant response rating [9, 21]: 0

SMILES: CCn1nc(C2(C)CC2)cc1C(=O)Nc1cccc(C(=O)N2CC=CC2)c1 [Compound 304]
- Plant response rating, Johnsongrass [1, 22]: 0
- Plant response rating, Johnsongrass [1, 23]: 60
- Plant response rating, Johnsongrass [1, 24]: 70
- Plant response rating, Johnsongrass [1, 25]: 80
- Rice plant response rating (0 to 100 scale) ([2]; 125 g ai/ha, 0 = no effect, 100 = complete control): 0
- Plant response rating, Rice ([2]; 500 g ai/ha, visual rating, 0 = no effect, 100 = complete control): 20
- Plant response rating, Lambsquarters [3, 22]: 0
- Plant response rating, Lambsquarters [3, 23]: 100
- Plant response rating, Lambsquarters [3, 24]: 100
- Plant response rating, Lambsquarters [3, 25]: 100
- Plant response rating, Cupgrass, Woolly [4, 22]: 5
- Plant response rating, Cupgrass, Woolly [4, 23]: 10
- Plant response rating, Cupgrass, Woolly [4, 24]: 60
- Plant response rating, Cupgrass, Woolly [4, 25]: 80
- Plant response rating, Nutsedge, Yellow [5, 22]: 0
- Plant response rating, Nutsedge, Yellow [5, 23]: 0
- Plant response rating, Nutsedge, Yellow [5, 24]: 0
- Plant response rating, Nutsedge, Yellow [5, 25]: 5
- Barnyardgrass plant response rating [6, 14]: 40
- Barnyardgrass plant response rating ([6]; 125 g ai/ha, scale 0 to 100 (0 no effect, 100 complete control)): 50
- Barnyardgrass plant response rating [6, 15]: 85
- Plant response rating, Barnyardgrass [6, 16]: 95

SMILES: CCNC(=O)c1cc(C)nc(NC(=O)c2cc(C(C)(C)C)nn2CC)c1 [Compound 149]
- Plant response rating, Johnsongrass [1, 22]: 10
- Plant response rating, Johnsongrass [1, 23]: 60
- Johnsongrass plant response rating [1, 26]: 100
- Crabgrass, Large plant response rating [7, 18]: 40
- Plant response rating, Crabgrass, Large [7, 19]: 75
- Crabgrass, Large plant response rating [7, 20]: 95
- Crabgrass, Large plant response rating [7, 27]: 100
- Plant response rating, Rice ([2]; 500 g ai/ha, visual rating 0-100, 0 no effect, 100 complete control): 30
- Plant response rating, Rice [2, 13]: 20
- Plant response rating, Lambsquarters [3, 22]: 75
- Plant response rating, Lambsquarters [3, 23]: 95
- Lambsquarters plant response rating [3, 26]: 95
- Plant response rating, Cupgrass, Woolly [4, 22]: 0
- Plant response rating, Cupgrass, Woolly [4, 23]: 5
- Plant response rating, Cupgrass, Woolly ([4]; 250 g ai/ha, scale 0 to 100 (0 no effect, 100 complete control), visual, 12 to 14 days, preemergence): 20
- Cupgrass, Woolly plant response rating [4, 26]: 70
- Plant response rating, Nutsedge, Yellow [5, 22]: 0
- Plant response rating, Nutsedge, Yellow [5, 23]: 0
- Nutsedge, Yellow plant response rating [5, 26]: 0
- Pigweed plant response rating [8, 18]: 65
- Plant response rating, Pigweed [8, 19]: 90
- Pigweed plant response rating [8, 27]: 95
- Pigweed plant response rating ([8]; preemergence, 500 g ai/ha, visual injury, 0 to 100 scale (0 no effect, 100 complete control)): 90
- Foxtail, Giant plant response rating [9, 18]: 40
- Plant response rating, Foxtail, Giant [9, 19]: 65
- Foxtail, Giant plant response rating [9, 20]: 70
- Foxtail, Giant plant response rating [9, 27]: 100
